Legend:
IGF1R = experiment: Western blotting of IGF1R phosphorylation and downstream signaling in HEK293 cells overexpressing IGF2BP3; assay type: cell-based; settings: FIG. 5A
Method: (§1) The effects of IGF1R inhibition on the growth of cancer cells driven by IGF2PB3 overexpression were then tested. First, studies were conducted to determine if activation of the AKT and MAPK pathways and cell growth induced by IGF2BP3 overexpression is affected by inhibiting IGF1R by OSI-906 in vitro. […] The experiments were repeated in quadruplicate and were calculated as percentage of viable cells after treatment with OSI-906 (mean±SD). […] Again, the assay was performed in quadruplicate and shown as mean±SD.

PaCa-2 cancer cells = experiment: Cell growth/proliferation of PaCa-2 cancer cells (high IGF2BP3); assay type: cell-based, human
Method: as §1

FTC133 cells = experiment: Cell growth/proliferation of FTC133 cells (low IGF2BP3); assay type: cell-based, human
Method: as §1

U2OS cells = experiment: Cell growth/proliferation of U2OS cells (low IGF2BP3); assay type: cell-based
Method: as §1

[1] = tested on: FTC133 cells with induced IGF2BP3 expression; experiment: Cell growth of FTC133 cells transiently transfected with IGF2BP3; assay type: cell-based, human; settings: FTC133, IGF2BP3 induced by transient transfection, FIG. 5C
Method: as §1

[2] = tested on: U2OS cells with induced IGF2BP3 expression; experiment: Cell growth of U2OS cells transiently transfected with IGF2BP3; assay type: cell-based; settings: IGF2BP3 induced by transient transfection, FIG. 5C
Method: as §1

PaCa-2 cells = experiment: Soft agar colony formation of PaCa-2 cells; assay type: cell-based, human
Method: Finally, the impact of IGF2BP3 overexpression on cell transformation was investigated.
as §1

[3] = tested on: PaCa-2 pancreatic cancer cell tumors; experiment: PaCa-2 xenograft in nude mice; assay type: in vivo; settings: FIG. 5F; for tumor growth: PaCa-2 subcutaneous xenograft, nude mice, therapeutic doses
Method: (§2) Next, tumor cells overexpressing IGF2BP3 were tested to see if their growth can be blocked via IGF1R inhibition in vivo using a xenograft experimental model. Pancreatic cancer cells PaCa-2 and colon cancer cells Caco-2, both expressing IGF2PB3 at high level (FIG. 5B), and thyroid cancer cells FTC133 with low levels of IGF2BP3 expression were employed to establish tumors growing in nude mice at sites of subcutaneous cell injection.

[4] = tested on: Caco-2 colon cancer cell tumors; experiment: Caco-2 xenograft in nude mice; assay type: in vivo; settings: FIG. 5F; for tumor growth: Caco-2 subcutaneous xenograft, nude mice, therapeutic doses
Method: as §2

[5] = tested on: FTC133 thyroid cancer cell tumors; experiment: FTC133 xenograft in nude mice; assay type: in vivo; settings: FIG. 5G; for tumor growth: FTC133 subcutaneous xenograft, nude mice, therapeutic doses
Method: as §2

solid tumors = settings: cited from earlier work

C[C@]1(O)C[C@@H](c2nc(-c3ccc4ccc(-c5ccccc5)nc4c3)c3c(N)nccn32)C1 [OSI-906, linsitinib]
IGF1R phosphorylation and downstream signaling induced by IGF2BP3 (IGF1R; 5 μM, 30 minutes): inhibition of IGF1R phosphorylation and downstream signaling | phosphorylation of AKT, S6, and ERK induced by IGF2BP3 overexpression (IGF1R; Western blotting): blocked phosphorylation of AKT, S6, and ERK | cell growth (PaCa-2 cancer cells; PaCa-2, strongly overexpress IGF2BP3, FIG. 5B): dose-dependent growth inhibition | proliferation (percentage of viable cells) (PaCa-2 cancer cells; PaCa-2, treatment for 72 hours, FIG. 5B bottom panel): inhibition of proliferation | cell growth (FTC133 cells; FTC133, low IGF2BP3 expression, FIG. 5B): did not have any effects | proliferation (percentage of viable cells) (FTC133 cells; FTC133, treatment for 72 hours, FIG. 5B bottom panel): no effect on proliferation | cell growth (U2OS cells; low IGF2BP3 expression, FIG. 5B): did not have any effects | proliferation (percentage of viable cells) (U2OS cells; treatment for 72 hours, FIG. 5B bottom panel): no effect on proliferation | cell growth [1]: acquired sensitivity to growth inhibition | cell growth [2]: acquired sensitivity to growth inhibition | colony formation in soft agar (PaCa-2 cells): significant reduction of colony formation | tumor growth [3]: arrested growth of tumors | tumor growth ([3]; listed as linsitinib): particularly inhibited | phosphorylated IGF1R, AKT, S6, and ERK in the tumor tissue ([3]; PaCa-2 xenograft tumor tissue): reduction of phosphorylated IGF1R, AKT, S6, and ERK | tumor growth [4]: arrested growth of tumors | tumor growth ([4]; listed as linsitinib): particularly inhibited | phosphorylated IGF1R, AKT, S6, and ERK in the tumor tissue ([4]; Caco-2 xenograft tumor tissue): reduction of phosphorylated IGF1R, AKT, S6, and ERK | tumor growth [5]: had no effect on the growth | tumor growth ([5]; listed as linsitinib): not impacted | phosphorylated IGF1R, AKT, S6, and ERK in the tumor tissue ([5]; FTC133 xenograft tumor tissue): did not show reduction in the phosphorylation | proportion of patients with clinical response (solid tumors; clinical trials, patients with solid tumors): 1-5% | efficacy in patients in clinical trials (solid tumors; clinical trials): ineffective in the vast majority of patients | tumor responsiveness in clinical trials (solid tumors; colorectal cancer, non-small cell lung cancer, sarcoma, and other cancer types): only low levels of tumor responsiveness were observed

Source: patent publication US11891667B2, “IGF2BP3 functional alterations and overexpression as a marker for cancer diagnosis and therapeutic response to IGF1R inhibitors” (UNIVERSITY OF PITTSBURGH-OF THE COMMONWEALTH SYSTEM OF …, priority 2016, dated 2024)
